{"source": "patent US20230192722A1", "about": "“SALTS AND SOLID FORMS OF AN FGFR INHIBITOR AND PROCESSES OF PREPARING THEREOF” (Incyte Corporation, priority 2021, published 2023)", "assay_type_in_all_cases": "physicochemical", "key": {"[1]": {"experiment": "Solubility measurement of Compound 1 Phosphate, saturated in different solvent systems, measured by HPLC", "method": "The Compound 1 Phosphate sample was saturated in different solvent systems (Table 4) at 25° C. and 50° C., respectively. Each solubility was measured by HPLC."}, "[2]": {"experiment": "Solubility measurement of Compound 1 Phosphate, saturated in different solvent systems, measured by HPLC", "conditions": "DCM, 50° C. column, measured at 40° C."}, "[3]": {"experiment": "Phase equilibration of form mixtures, relative stability of Compound 1 Phosphate forms (XRPD)", "conditions": "mixture of Forms I, II", "method": "The relative stability of the three forms (Forms I, II, and III) as well as amorphous form of Compound 1 Phosphate studied and compared by phase equilibration of mixture experiments in EtOH and in a mixture solvent of EtOH/H2O (9/1). As summarized in Table 16, Compound 1 Phosphate (Form I) was mixed and slurred with other forms in EtOH and in a mixed solvent of EtOH/H2O (9/1) at 50° C. for 6 h respectively."}}}
{"compound": "COc1cc2[nH]nc(-c3ccc(N4CCN5C[C@H](O)C[C@H]5C4)nc3)c2nc1-c1cccc(C)c1C.O=P(O)(O)O", "note": "[Compound 1 Phosphate, (7R,8aS)-2-(5-(5-(2,3-dimethylphenyl)-6-methoxy-1H-pyrazolo[4,3-b]pyridin-3-yl)pyridin-2-yl)octahydropyrrolo[1,2-a]pyrazin-7-ol phosphate]", "values": [{"measurement": "Solubility", "setting": "[1]; 1,4-dioxane, 25° C.", "result": 150, "unit": "µg/mL"}, {"measurement": "Solubility", "setting": "[1]; 1,4-dioxane, 50° C.", "result": 230, "unit": "µg/mL"}, {"measurement": "Solubility", "setting": "[1]; 2-Butanone, 25° C.", "result": 100, "unit": "µg/mL"}, {"measurement": "Solubility", "setting": "[1]; 2-Butanone, 50° C.", "result": 130, "unit": "µg/mL"}, {"measurement": "Solubility", "setting": "[1]; Acetone, 25° C.", "result": 70, "unit": "µg/mL"}, {"measurement": "Solubility", "setting": "[1]; Acetone, 50° C.", "result": 100, "unit": "µg/mL"}, {"measurement": "Solubility", "setting": "[1]; CH3CN, 25° C.", "result": "<10", "unit": "µg/mL"}, {"measurement": "Solubility", "setting": "[1]; CH3CN, 50° C.", "result": 10, "unit": "µg/mL"}, {"measurement": "Solubility", "setting": "[1]; CHCl3, 25° C.", "result": 60, "unit": "µg/mL"}, {"measurement": "Solubility", "setting": "[1]; CHCl3, 50° C.", "result": 130, "unit": "µg/mL"}, {"measurement": "Solubility", "setting": "[1]; DCM, 25° C.", "result": 30, "unit": "µg/mL"}, {"measurement": "Solubility", "setting": "[1]; DMF, 25° C.", "result": 14410, "unit": "µg/mL"}, {"measurement": "Solubility", "setting": "[1]; DMF, 50° C.", "result": 19060, "unit": "µg/mL"}, {"measurement": "Solubility", "setting": "[1]; DMSO, 25° C.", "result": 33740, "unit": "µg/mL"}, {"measurement": "Solubility", "setting": "[1]; DMSO, 50° C.", "result": 44990, "unit": "µg/mL"}, {"measurement": "Solubility", "setting": "[1]; EtOAc, 25° C.", "result": 50, "unit": "µg/mL"}, {"measurement": "Solubility", "setting": "[1]; EtOAc, 50° C.", "result": 60, "unit": "µg/mL"}, {"measurement": "Solubility", "setting": "[1]; EtOH, 25° C.", "result": 530, "unit": "µg/mL"}, {"measurement": "Solubility", "setting": "[1]; EtOH, 50° C.", "result": 680, "unit": "µg/mL"}, {"measurement": "Solubility", "setting": "[1]; Ethyl formate, 25° C.", "result": 120, "unit": "µg/mL"}, {"measurement": "Solubility", "setting": "[1]; Ethyl formate, 50° C.", "result": 140, "unit": "µg/mL"}, {"measurement": "Solubility", "setting": "[1]; H2O, 25° C.", "result": 260, "unit": "µg/mL"}, {"measurement": "Solubility", "setting": "[1]; H2O, 50° C.", "result": 1100, "unit": "µg/mL"}, {"measurement": "Solubility", "setting": "[1]; Heptane, 25° C.", "result": "<10", "unit": "µg/mL"}, {"measurement": "Solubility", "setting": "[1]; Heptane, 50° C.", "result": "<10", "unit": "µg/mL"}, {"measurement": "Solubility", "setting": "[1]; IPA, 25° C.", "result": 230, "unit": "µg/mL"}, {"measurement": "Solubility", "setting": "[1]; IPA, 50° C.", "result": 280, "unit": "µg/mL"}, {"measurement": "Solubility", "setting": "[1]; IPAc, 25° C.", "result": 20, "unit": "µg/mL"}, {"measurement": "Solubility", "setting": "[1]; IPAc, 50° C.", "result": 30, "unit": "µg/mL"}, {"measurement": "Solubility", "setting": "[1]; MIBK, 25° C.", "result": 160, "unit": "µg/mL"}, {"measurement": "Solubility", "setting": "[1]; MIBK, 50° C.", "result": 160, "unit": "µg/mL"}, {"measurement": "Solubility", "setting": "[1]; MTBE, 25° C.", "result": 60, "unit": "µg/mL"}, {"measurement": "Solubility", "setting": "[1]; MTBE, 50° C.", "result": 70, "unit": "µg/mL"}, {"measurement": "Solubility", "setting": "[1]; MeOEtOH, 25° C.", "result": 4140, "unit": "µg/mL"}, {"measurement": "Solubility", "setting": "[1]; MeOEtOH, 50° C.", "result": 5570, "unit": "µg/mL"}, {"measurement": "Solubility", "setting": "[1]; MeOH, 25° C.", "result": 2260, "unit": "µg/mL"}, {"measurement": "Solubility", "setting": "[1]; MeOH, 50° C.", "result": 2440, "unit": "µg/mL"}, {"measurement": "Solubility", "setting": "[1]; THF, 25° C.", "result": 60, "unit": "µg/mL"}, {"measurement": "Solubility", "setting": "[1]; THF, 50° C.", "result": 70, "unit": "µg/mL"}, {"measurement": "Solubility", "setting": "[1]; Toluene, 25° C.", "result": "<10", "unit": "µg/mL"}, {"measurement": "Solubility", "setting": "[1]; Toluene, 50° C.", "result": 20, "unit": "µg/mL"}, {"measurement": "Solubility (almost insoluble)", "setting": "[1]; in CH3CN, CHCl3, DCM, 1,4-dioxane, MIBK, toluene, THF, acetone, n-BuOH, MTBE, EtOH, EtOAc, ethyl formate, heptane, iso-butyl acetate, IPAc, n-PrOH, IPA, MEK at 25° C. and 50° C., and in H2O at 25° C.", "result": "< 1000", "unit": "µg/mL"}, {"measurement": "Solubility (relatively good solubility)", "setting": "[1]; in DMF and DMSO, at both 25° C. and 50° C.", "result": "> 10000", "unit": "µg/mL"}, {"measurement": "Solubility (slightly soluble)", "setting": "[1]; in MeOH and MeOEtOH at 25° C. and 50° C., and in H2O at 50° C.", "result": "1000 to 10000", "unit": "µg/mL"}, {"measurement": "Solubility", "setting": "[1]; iso-Butyl acetate, 25° C.", "result": 110, "unit": "µg/mL"}, {"measurement": "Solubility", "setting": "[1]; iso-Butyl acetate, 50° C.", "result": 150, "unit": "µg/mL"}, {"measurement": "Solubility", "setting": "[1]; n-BuOH, 25° C.", "result": 360, "unit": "µg/mL"}, {"measurement": "Solubility", "setting": "[1]; n-BuOH, 50° C.", "result": 470, "unit": "µg/mL"}, {"measurement": "Solubility", "setting": "[1]; n-PrOH, 25° C.", "result": 400, "unit": "µg/mL"}, {"measurement": "Solubility", "setting": "[1]; n-PrOH, 50° C.", "result": 400, "unit": "µg/mL"}, {"measurement": "Solubility", "setting": "[2]", "result": "0.05 (40° C.) mg/mL"}, {"measurement": "Product Solid Form", "setting": "[3]; III and Amorphous slurried in EtOH at 50° C. for 6 h", "result": "transformed to Form I"}, {"measurement": "Product Solid Form", "setting": "[3]; III and Amorphous slurried in EtOH/H2O (9/1) at 50° C. for 6 h", "result": "transformed to Form I"}]}
